One molecule from patent US20120027777A1, “LJUNGAN VIRUS WITH IMPROVED REPLICATION CHARACTERISTICS” (APODEMUS AB, priority 2009, published 2012) can be followed below.

Structures are written as SMILES.

This assay has as its system GMK cells. As to the kind of experiment: Cellular DNA degradation by electrophoresis. The settings on record: uninfected GMK cells, 16 h treatment, 0.5 μM, positive control. Format: cell-based, Green Monkey. Here is the method:
Degradation of chromosomal DNA is one of the hallmarks of apoptotic cells. DNA degradation in GMK cells infected with 145SL and 145SLG as well as recombinant derivatives of these viruses was assayed as previously described by with some minor modifications. Briefly, subconfluent GMK cells in T25-flasks were infected with 0.5 mL of virus lysates generated from viral cDNA clones by transfection and subsequent blind passage as previously described. […] Lysis of cells was induced using 0.2% Triton X-100, 0.5 mM EDTA in 10 mM Tris-HCl, pH 7.4. Fragmented chromatin was released from cell nuclei by vortexing. The nucleic components were separated (20,000×g for 10 min at 4° C.) and the nucleic acids in the supernatant fraction were precipitated. After precipitation, the nucleic acids were washed in 70% ethanol and dissolved in 50 μl TE buffer (1 mM EDTA, 10 mM Tris-HCl, pH 7.4). The RNA fraction of isolated nucleic acids was degraded using RNase A (10 μg/ml for 30 min at 37° C.). Finally, 1 μg isolated nucleic acids of each sample were separated by electrophoresis in a 1.5% agarose gel. Apoptosis in control cells was induced by a 16 h treatment of GMK cells with 0.5 μM staurosporine (Sigma), a broad spectrum protein kinase inhibitor [10]. The nucleic acids from these control cells were otherwise treated in the same way as described for cells infected with LV.

For `CN[C@@H]1C[C@H]2O[C@@](C)([C@@H]1OC)n1c3ccccc3c3c4c(c5c6ccccc6n2c5c31)C(=O)NC4` [staurosporine], the DNA fragmentation result is given as “expected processing of the nuclear DNA”.
